# According to ChEMBL document CHEMBL1143991, “The 2alpha-(3-hydroxypropyl) group as an active motif in vitamin D3 analogues as agonists of the mutant vitamin D receptor (Arg274Leu)” (Bioorg Med Chem, 2008):
# The source made the active and inactive calls. The rule behind the calls is not given here.
# Target: T1, Vitamin D3 receptor (Homo sapiens) (UniProt P11473)
# T1 sequence (whole entry): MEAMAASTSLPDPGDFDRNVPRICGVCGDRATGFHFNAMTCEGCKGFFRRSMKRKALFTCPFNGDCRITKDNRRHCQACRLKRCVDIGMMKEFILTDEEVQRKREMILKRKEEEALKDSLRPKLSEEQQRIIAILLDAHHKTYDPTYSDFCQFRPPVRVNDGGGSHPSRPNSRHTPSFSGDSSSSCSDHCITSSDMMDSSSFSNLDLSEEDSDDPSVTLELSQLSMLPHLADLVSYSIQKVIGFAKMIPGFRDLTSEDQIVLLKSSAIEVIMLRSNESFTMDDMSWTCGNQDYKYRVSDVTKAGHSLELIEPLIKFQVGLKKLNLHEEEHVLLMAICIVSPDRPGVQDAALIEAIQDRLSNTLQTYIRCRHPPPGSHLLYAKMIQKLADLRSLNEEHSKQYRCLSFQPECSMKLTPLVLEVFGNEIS
# Test: Enhancement of VDR mediated transcriptional activity in human MCF7 cells
# Type: cell-based
row,Activity,SMILES
1,Active,C=C1C[C@@H](CCCO)[C@H](O)C/C1=C/C=C1\CCC[C@]2(C)[C@@H]([C@H](C)CCCC(C)(C)O)CC[C@@H]12
2,Active,C=C1/C(=C\C=C2/CCC[C@]3(C)[C@@H]([C@H](C)CCCC(C)(C)O)CC[C@@H]23)C[C@@H](O)[C@H](CCCO)[C@@H]1O
3,Active,C=C1/C(=C\C=C2/CCC[C@]3(C)[C@@H]([C@H](C)CCCC(C)(C)O)CC[C@@H]23)C[C@@H](O)[C@H](CCCO)[C@H]1CO
4,Active,C=C1/C(=C\C=C2/CCC[C@]3(C)[C@@H]([C@H](C)CCCC(C)(C)O)CC[C@@H]23)C[C@@H](O)[C@H](CCCO)[C@@H]1CO
